Experimental data from patent US20050112573A1, “Method of detecting toxic substance” (priority 2001, published 2005).

System: yeast genes (level of expressed mRNA)
Experiment: DNA chip analysis of expressed mRNA of yeast genes after 2 h culture with a toxic chemical substance
Assay type: cell-based, Saccharomyces cerevisiae S288C
Settings: for The level of expressed mRNA in the presence of chemical substance/ (ratio to absence of chemical substance): stress protein genes, DNA chip
Experimental: Yeast (Saccharomyces cerevtisiae S288C (α SUC2mal mel gap2 CUP1)) were cultured at 25° C. on YPD medium (yeast extract 1%, polypepton 2%, glucose 2%). One of toxic chemical substances was added to the cell at logarithmic growth phase, and the cell was further cultured for two hours. Cell was cultured without any chemical substance in the same condition, and was used as control. Concentrations of the chemical substances were defined to inhibit the growth of the yeast but not lead to death.
After the completion of cultivation, the culture was centrifuged to collect the cells. To the cells, sodium acetate buffer (50 mM sodium acetate, 10 mM EDTA, 1% SDS) was added, and the mixture was shaken at 65° C. for five minutes, followed by returning to room temperature, and obtaining the supernatant, which procedure was repeated two times. To the supernatant, ½ amount of a solution of phenol/chloroform was added, and the mixture was centrifuged to give a supernatant, which was added with an equal amount of chloroform, and the mixture was centrifuged to give a supernatant. To the supernatant, an equal amount of isopropanol containing 0.3 M sodium acetate was added, and the mixture was allowed to stand at room temperature for 30 minutes, after which the mixture was centrifuged to give a sediment of the whole RNAs. Seventy % ethanol was added to the sediment, and the mixture was again centrifuged to give a sediment, which was then dried and dissolved in water. mRNA was isolated from the whole RNAs as followings. In view of the fact that a poly A chain is attached to the 3′ terminus of mRNA, a polynucleotide having a poly T structure which was immobilized on the surface of latex beads was used to trap the mRNA, and then the mRNA was washed and eluted with spine column (Oligotex-dT30<Super>mRNA Purification Kit, Takara). Reverse transcription of the mRNA was conducted with a reverse transcriptase (Super Script II Reverse Transcriptase; catalogue No. 18064-014, GibcoBRL) using fluorescence-labeled nucleotides to give cDNAs that were introduced with Cy3-dUTP or Cy5-dUTP during the reverse transcription.
The labeled cDNAs were dissolved in TE buffer (10 mM Tris-HCl/1 mM EDTA, pH8.0), and the solution was dropped on the DNA chip containing the whole genes of yeast (DNA Chip Research Inc. Japan) so that the cDNAs were hybridized on the DNA chip at 65° C. for over 12 hours. The fluoresces intensity of the DNA chip was read with a scanner, and the ratio relative to the fluorescence intensity resulting from the absence of chemical substance was estimated as the following, which is shown in Tables 1 to 9: [formula]
In the Tables, “Intensity” indicated in the rightmost column is a value of the level of expressed mRNA of each gene in control cells as divided by the average level of the expressions of the whole genes.

CCCCC[C@H](O)CC(=O)CCc1ccc(O)c(OC)c1 [(13), gingerol]
1.5: The level of expressed mRNA in the presence of chemical substance/absence: YPL180W (gene YPL180W) | The level of expressed mRNA in the presence of chemical substance/ (ratio to absence), gene YCR046C (yeast gene YCR046C, mitochondria-located protein genes, 2 h culture with chemical)
1.3: The level of expressed mRNA in the presence of chemical substance/absence: YPR146C (gene YPR146C) | The level of expressed mRNA in the presence of chemical substance/absence: YPR172W (gene YPR172W) | The level of expressed mRNA in the presence of chemical substance/The level of expressed mRNA in the absence of chemical substance (yeast gene YCR004C) | The level of expressed mRNA in the presence of chemical substance/The level of expressed mRNA in the absence of chemical substance (yeast gene YCR071C)
2.3: level of expressed mRNA in the presence of chemical substance/in its absence (gene YPR026W)
1.4: The level of expressed mRNA in the presence of chemical substance/absence: YOR267C (gene YOR267C) | The level of expressed mRNA in the presence of chemical substance/absence: YPL151C (gene YPL151C) | The level of expressed mRNA in the presence of chemical substance/absence: YPL152W (gene YPL152W) | The level of expressed mRNA in the presence of chemical substance/absence: YPL260W (gene YPL260W) | The level of expressed mRNA in the presence of chemical substance/absence: YPR093C (gene YPR093C) | The level of expressed mRNA in the presence of chemical substance/absence: YPR150W (gene YPR150W) | The level of expressed mRNA in the presence of chemical substance/absence: YPR174C (gene YPR174C) | The level of expressed mRNA in the presence of chemical substance/The level of expressed mRNA in the absence of chemical substance (yeast gene YAR010C)
0.9: The level of expressed mRNA in the presence of chemical substance/absence: YPL188W (gene YPL188W)
1.8: level of expressed mRNA in the presence of chemical substance/in its absence (gene YOR344C) | level of expressed mRNA in the presence of chemical substance/in its absence (gene YOR347C) | The level of expressed mRNA in the presence of chemical substance/absence: YPL249C (gene YPL249C) | level of expressed mRNA in the presence of chemical substance/in its absence (gene YPR006C) | The level of expressed mRNA in the presence of chemical substance/The level of expressed mRNA in the absence of chemical substance (yeast gene YBL043W) | The level of expressed mRNA in the presence of chemical substance/ (ratio to absence), gene YCR083W (yeast gene YCR083W, mitochondria-located protein genes, 2 h culture with chemical) | The level of expressed mRNA in the presence of chemical substance/ (ratio to absence of chemical substance) (yeast gene YCR083W)
2.9: The level of expressed mRNA in the presence of chemical substance/The level of expressed mRNA in the absence of chemical substance (yeast gene YBL005W-A)
2.6: The level of expressed mRNA in the presence of chemical substance/The level of expressed mRNA in the absence of chemical substance (yeast gene YBL041W)
0.8: The level of expressed mRNA in the presence of chemical substance / the level in the absence of chemical substance, yeast gene YPL107W (gene YPL107W, DNA chip fluorescence ratio to control without chemical, 2 hours culture with chemical, growth-inhibiting non-lethal concentration) | The level of expressed mRNA in the presence of chemical substance/absence: YPL225W (gene YPL225W) | The level of expressed mRNA in the presence of chemical substance/ (ratio to absence), gene YBR122C (yeast gene YBR122C, mitochondria-located protein genes, 2 h culture with chemical) | The level of expressed mRNA in the presence of chemical substance/ (in its absence), gene YBR298C (yeast gene YBR298C, ratio of DNA chip fluorescence intensity to that without chemical substance)
3.0: The level of expressed mRNA in the presence of chemical substance/The level of expressed mRNA in the absence of chemical substance (yeast gene YCL020W)
2.1: level of expressed mRNA in the presence of chemical substance/in its absence (gene YOR336W) | The level of expressed mRNA in the presence of chemical substance/absence: YPL150W (gene YPL150W) | The level of expressed mRNA in the presence of chemical substance/ (ratio to absence of chemical substance) (yeast gene YBL093C) | The level of expressed mRNA in the presence of chemical substance/The level of expressed mRNA in the absence of chemical substance (yeast gene YBR214W)
0.6: The level of expressed mRNA in the presence of chemical substance/absence: YOR325W (gene YOR325W) | The level of expressed mRNA in the presence of chemical substance / the level in the absence of chemical substance, yeast gene YPL138C (gene YPL138C, DNA chip fluorescence ratio to control without chemical, 2 hours culture with chemical, growth-inhibiting non-lethal concentration) | The level of expressed mRNA in the presence of chemical substance/ in its absence, gene YDL067C (yeast gene YDL067C, energy system protein genes, 2 h culture with the chemical, ratio to control without chemical) | The level of expressed mRNA in the presence of chemical substance/ (ratio to absence), gene YDL067C (yeast gene YDL067C, mitochondria-located protein genes, 2 h culture with chemical)
2.0: The level of expressed mRNA in the presence of chemical substance/The level of expressed mRNA in the absence of chemical substance (yeast gene YDL008W)
1.2: The level of expressed mRNA in the presence of chemical substance/absence: YPL005W (gene YPL005W) | The level of expressed mRNA in the presence of chemical substance/absence: YPR148C (gene YPR148C) | The level of expressed mRNA in the presence of chemical substance/ (ratio to absence of chemical substance) (yeast gene YBR044C)
1.0: The level of expressed mRNA in the presence of chemical substance/absence: YPL168W (gene YPL168W) | The level of expressed mRNA in the presence of chemical substance/absence: YPL221W (gene YPL221W) | The level of expressed mRNA in the presence of chemical substance/absence: YPR169W (gene YPR169W) | The level of expressed mRNA in the presence of chemical substance/ (ratio to absence), gene YBL038W (yeast gene YBL038W, mitochondria-located protein genes, 2 h culture with chemical) | The level of expressed mRNA in the presence of chemical substance/ (ratio to absence), gene YBR251W (yeast gene YBR251W, mitochondria-located protein genes, 2 h culture with chemical) | The level of expressed mRNA in the presence of chemical substance/ in its absence, gene YDL078C (yeast gene YDL078C, energy system protein genes, 2 h culture with the chemical, ratio to control without chemical)
5.0: The level of expressed mRNA in the presence of chemical substance/The level of expressed mRNA in the absence of chemical substance (yeast gene YBL078C)
1.1: level of expressed mRNA in the presence of chemical substance/in its absence (gene YPL265W) | The level of expressed mRNA in the presence of chemical substance/absence: YPR061C (gene YPR061C) | The level of expressed mRNA in the presence of chemical substance/The level of expressed mRNA in the absence of chemical substance (yeast gene YCL027W)
1.6: The level of expressed mRNA in the presence of chemical substance/absence: YPR049C (gene YPR049C) | The level of expressed mRNA in the presence of chemical substance/absence: YPR158W (gene YPR158W)
1.9: level of expressed mRNA in the presence of chemical substance/in its absence (gene YPL017C) | The level of expressed mRNA in the presence of chemical substance/ (in its absence), gene YBR036C (yeast gene YBR036C, ratio of DNA chip fluorescence intensity to that without chemical substance) | The level of expressed mRNA in the presence of chemical substance/The level of expressed mRNA in the absence of chemical substance (yeast gene YCR088W)
